{"source": "paper PMC9653409", "about": "“Generative deep learning enables the discovery of a potent and selective RIPK1 inhibitor” (Nature Communications, 2022)", "experiment_in_all_cases": "Kinase inhibitory activity profiling of RI-962@10 µM (406 kinases, Eurofins)", "assay_type_in_all_cases": "biochemical", "key": {"[1]": {"target": "panel of human kinases (kinase named in endpoint) (Homo sapiens, UniProt O75676)", "sequence (O75676 whole entry)": "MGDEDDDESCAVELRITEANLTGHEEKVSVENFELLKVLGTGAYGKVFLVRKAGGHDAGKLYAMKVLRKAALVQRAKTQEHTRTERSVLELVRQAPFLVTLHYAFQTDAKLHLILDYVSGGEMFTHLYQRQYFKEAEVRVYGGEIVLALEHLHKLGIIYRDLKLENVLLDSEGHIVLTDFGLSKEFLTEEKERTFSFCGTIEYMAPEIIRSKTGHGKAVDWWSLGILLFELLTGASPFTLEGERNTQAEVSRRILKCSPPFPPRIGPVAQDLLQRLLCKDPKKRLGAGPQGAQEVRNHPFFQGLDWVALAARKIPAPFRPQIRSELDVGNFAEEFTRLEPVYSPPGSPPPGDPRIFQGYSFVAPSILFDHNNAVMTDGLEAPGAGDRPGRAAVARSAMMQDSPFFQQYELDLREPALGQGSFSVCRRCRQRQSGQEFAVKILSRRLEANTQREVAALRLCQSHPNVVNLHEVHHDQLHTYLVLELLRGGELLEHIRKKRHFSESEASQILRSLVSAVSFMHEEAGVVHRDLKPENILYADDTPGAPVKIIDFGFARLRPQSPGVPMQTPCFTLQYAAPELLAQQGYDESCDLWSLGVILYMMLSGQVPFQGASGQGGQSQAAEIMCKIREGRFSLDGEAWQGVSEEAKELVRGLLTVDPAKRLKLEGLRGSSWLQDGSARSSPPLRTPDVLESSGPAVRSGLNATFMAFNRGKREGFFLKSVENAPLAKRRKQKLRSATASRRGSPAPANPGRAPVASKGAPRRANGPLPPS", "conditions": "10 µM; read-out: Activity (%), MSK2(h)", "protocol": "(§1) In vitro kinase activity assays were conducted through the Kinase Profiling Services provided by Eurofins (Eurofins, France). The protocol for the RIPK1 assay is briefly described as follows (Protocols for other kinases are very similar and can be found in http://www.eurofins.com/pharmadiscovery). RIPK1 kinase was incubated with the test compound in assay buffer containing 8 mM MOPS (pH 7.0), 0.2 mM EDTA, 250 μM […], 10 mM magnesium acetate, and 10 μM [γ-33P]-ATP for 15 min at room temperature. The reaction was initiated by the addition of the Mg/ATP mixture. After incubation for 40 min at room temperature, and the reaction was stopped by the addition of 3% phosphoric acid. A 10 μL portion of the reaction mixture was then spotted onto a P30 filter mat and washed four times for 4 min in 0.425% phosphoric acid and once in methanol prior to drying and scintillation counting."}, "[2]": {"target": "panel of human kinases (kinase named in endpoint) (Homo sapiens, UniProt P10721)", "sequence (P10721 26-976)": "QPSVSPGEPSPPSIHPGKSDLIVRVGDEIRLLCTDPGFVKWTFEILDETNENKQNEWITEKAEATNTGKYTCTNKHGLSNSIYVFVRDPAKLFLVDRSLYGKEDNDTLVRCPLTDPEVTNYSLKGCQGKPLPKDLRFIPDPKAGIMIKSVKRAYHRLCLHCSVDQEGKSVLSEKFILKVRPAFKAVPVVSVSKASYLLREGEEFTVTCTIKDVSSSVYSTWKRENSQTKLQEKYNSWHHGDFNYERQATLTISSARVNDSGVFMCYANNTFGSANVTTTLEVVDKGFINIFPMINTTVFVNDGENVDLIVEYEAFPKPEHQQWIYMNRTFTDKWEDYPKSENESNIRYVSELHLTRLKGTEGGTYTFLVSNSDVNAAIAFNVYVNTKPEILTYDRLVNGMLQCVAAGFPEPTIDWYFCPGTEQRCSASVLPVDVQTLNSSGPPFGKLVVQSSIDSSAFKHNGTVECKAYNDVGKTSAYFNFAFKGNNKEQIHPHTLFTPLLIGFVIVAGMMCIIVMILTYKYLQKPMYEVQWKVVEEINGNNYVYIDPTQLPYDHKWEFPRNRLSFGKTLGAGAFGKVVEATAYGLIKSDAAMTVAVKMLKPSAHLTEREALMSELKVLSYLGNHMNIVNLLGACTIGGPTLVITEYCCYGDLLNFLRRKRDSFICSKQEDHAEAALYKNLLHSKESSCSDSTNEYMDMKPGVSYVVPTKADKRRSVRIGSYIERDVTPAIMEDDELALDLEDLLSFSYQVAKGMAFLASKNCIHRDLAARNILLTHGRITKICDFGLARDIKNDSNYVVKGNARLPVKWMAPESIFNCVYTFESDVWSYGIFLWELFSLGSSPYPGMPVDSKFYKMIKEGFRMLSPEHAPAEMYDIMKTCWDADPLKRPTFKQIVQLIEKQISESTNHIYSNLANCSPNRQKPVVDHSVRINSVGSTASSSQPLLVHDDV", "conditions": "10 µM; read-out: Activity (%), cKit(h)", "protocol": "as §1"}, "[3]": {"target": "panel of human kinases (kinase named in endpoint) (Homo sapiens, UniProt P21709)", "conditions": "10 µM; read-out: Activity (%), EphA1(h)", "protocol": "as §1"}, "[4]": {"target": "panel of human kinases (kinase named in endpoint) (Homo sapiens, UniProt P21802)", "sequence (P21802 22-821)": "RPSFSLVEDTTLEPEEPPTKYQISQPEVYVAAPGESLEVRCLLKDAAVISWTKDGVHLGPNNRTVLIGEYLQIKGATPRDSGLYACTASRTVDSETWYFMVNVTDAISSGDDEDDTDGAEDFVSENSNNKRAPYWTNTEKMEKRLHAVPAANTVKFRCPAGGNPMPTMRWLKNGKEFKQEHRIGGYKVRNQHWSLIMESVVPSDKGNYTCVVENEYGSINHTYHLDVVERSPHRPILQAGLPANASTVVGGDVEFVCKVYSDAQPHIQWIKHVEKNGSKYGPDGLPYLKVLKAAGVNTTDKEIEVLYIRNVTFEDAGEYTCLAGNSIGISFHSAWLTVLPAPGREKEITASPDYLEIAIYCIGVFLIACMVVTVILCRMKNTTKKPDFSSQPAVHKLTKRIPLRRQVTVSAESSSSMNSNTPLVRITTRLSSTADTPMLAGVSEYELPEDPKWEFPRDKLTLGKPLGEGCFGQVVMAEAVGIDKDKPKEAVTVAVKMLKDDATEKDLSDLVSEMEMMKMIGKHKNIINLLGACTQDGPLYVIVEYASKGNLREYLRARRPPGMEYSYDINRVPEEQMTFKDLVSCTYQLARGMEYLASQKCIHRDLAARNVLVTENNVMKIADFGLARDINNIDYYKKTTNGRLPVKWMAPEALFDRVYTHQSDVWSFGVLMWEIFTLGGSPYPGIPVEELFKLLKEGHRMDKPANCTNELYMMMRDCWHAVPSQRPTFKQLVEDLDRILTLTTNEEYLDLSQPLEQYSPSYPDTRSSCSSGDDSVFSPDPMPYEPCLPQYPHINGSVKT", "conditions": "10 µM; read-out: Activity (%), FGFR2(h)", "protocol": "as §1"}, "[5]": {"target": "panel of human kinases (kinase named in endpoint) (Homo sapiens, UniProt P29320)", "conditions": "10 µM; read-out: Activity (%), EphA3(h)", "protocol": "as §1"}, "[6]": {"target": "panel of human kinases (kinase named in endpoint) (Homo sapiens, UniProt P30291)", "conditions": "10 µM; read-out: Activity (%), Wee1(h)", "protocol": "as §1"}, "[7]": {"target": "panel of human kinases (kinase named in endpoint) (Homo sapiens, UniProt P46734)", "sequence (P46734 whole entry)": "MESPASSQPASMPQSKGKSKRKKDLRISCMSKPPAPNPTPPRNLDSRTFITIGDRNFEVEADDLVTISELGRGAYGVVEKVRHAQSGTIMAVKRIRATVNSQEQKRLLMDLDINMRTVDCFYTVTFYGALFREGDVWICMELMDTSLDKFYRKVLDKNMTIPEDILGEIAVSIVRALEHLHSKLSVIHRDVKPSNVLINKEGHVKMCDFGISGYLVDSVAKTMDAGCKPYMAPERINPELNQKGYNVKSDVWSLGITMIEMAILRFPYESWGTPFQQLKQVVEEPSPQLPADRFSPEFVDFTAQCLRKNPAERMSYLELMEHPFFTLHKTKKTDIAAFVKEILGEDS", "conditions": "10 µM; read-out: Activity (%), MKK3(h)", "protocol": "as §1"}, "[8]": {"target": "panel of human kinases (kinase named in endpoint) (Homo sapiens, UniProt P49841)", "conditions": "10 µM; read-out: Activity (%), GSK3β(h)", "protocol": "as §1"}, "[9]": {"target": "panel of human kinases (kinase named in endpoint) (Homo sapiens, UniProt P50613)", "sequence (P50613 whole entry)": "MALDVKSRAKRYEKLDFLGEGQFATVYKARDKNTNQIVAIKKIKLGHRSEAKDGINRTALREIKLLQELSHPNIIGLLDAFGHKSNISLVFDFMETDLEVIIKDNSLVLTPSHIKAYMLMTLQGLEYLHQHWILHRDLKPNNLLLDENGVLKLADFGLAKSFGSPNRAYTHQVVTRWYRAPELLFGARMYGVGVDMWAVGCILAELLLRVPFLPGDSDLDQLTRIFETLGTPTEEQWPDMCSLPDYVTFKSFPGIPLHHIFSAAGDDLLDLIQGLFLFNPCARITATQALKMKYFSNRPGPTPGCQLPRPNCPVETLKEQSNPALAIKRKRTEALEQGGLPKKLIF", "conditions": "10 µM; read-out: Activity (%), CDK7/cyclinH/MAT1(h)", "protocol": "as §1"}, "[10]": {"target": "panel of human kinases (kinase named in endpoint) (Homo sapiens, UniProt P52564)", "conditions": "10 µM; read-out: Activity (%), MKK6(h)", "protocol": "as §1"}, "[11]": {"target": "panel of human kinases (kinase named in endpoint) (Homo sapiens, UniProt P53350)", "conditions": "10 µM; read-out: Activity (%), Plk1(h)", "protocol": "as §1"}, "[12]": {"target": "panel of human kinases (kinase named in endpoint) (Homo sapiens, UniProt Q02763)", "conditions": "10 µM; read-out: Activity (%), Tie2 (h)", "protocol": "as §1"}, "[13]": {"target": "panel of human kinases (kinase named in endpoint) (Homo sapiens, UniProt Q08345)", "conditions": "10 µM; read-out: Activity (%), DDR1(h)", "protocol": "as §1"}, "[14]": {"target": "panel of human kinases (kinase named in endpoint) (Homo sapiens, UniProt Q09013)", "sequence (Q09013 whole entry)": "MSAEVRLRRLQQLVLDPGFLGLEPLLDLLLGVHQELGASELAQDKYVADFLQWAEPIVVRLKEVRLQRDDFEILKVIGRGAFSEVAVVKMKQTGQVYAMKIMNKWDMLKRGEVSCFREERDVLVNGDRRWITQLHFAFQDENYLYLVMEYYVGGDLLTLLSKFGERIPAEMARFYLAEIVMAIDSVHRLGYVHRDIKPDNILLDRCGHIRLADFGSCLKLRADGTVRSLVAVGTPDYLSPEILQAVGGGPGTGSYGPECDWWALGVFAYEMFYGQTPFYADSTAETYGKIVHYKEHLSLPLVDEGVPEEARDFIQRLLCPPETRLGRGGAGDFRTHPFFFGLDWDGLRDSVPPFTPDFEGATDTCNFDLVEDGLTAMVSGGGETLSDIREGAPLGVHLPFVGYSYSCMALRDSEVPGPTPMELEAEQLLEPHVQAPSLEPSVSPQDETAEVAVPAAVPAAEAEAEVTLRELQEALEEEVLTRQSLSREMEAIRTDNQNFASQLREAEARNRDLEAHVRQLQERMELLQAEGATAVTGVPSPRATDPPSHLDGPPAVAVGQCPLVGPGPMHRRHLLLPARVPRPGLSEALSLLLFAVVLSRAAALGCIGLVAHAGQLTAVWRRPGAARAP", "conditions": "10 µM; read-out: Activity (%), DMPK(h)", "protocol": "as §1"}, "[15]": {"target": "panel of human kinases (kinase named in endpoint) (Homo sapiens, UniProt Q13557)", "conditions": "10 µM; read-out: Activity (%), CaMKIIδ(h)", "protocol": "as §1"}, "[16]": {"target": "panel of human kinases (kinase named in endpoint) (Homo sapiens, UniProt Q14680)", "conditions": "10 µM; read-out: Activity (%), MELK(h)", "protocol": "as §1"}, "[17]": {"target": "panel of human kinases (kinase named in endpoint) (Homo sapiens, UniProt Q6IQ55)", "conditions": "10 µM; read-out: Activity (%), TTBK2(h)", "protocol": "as §1"}, "[18]": {"target": "panel of human kinases (kinase named in endpoint) (Homo sapiens, UniProt Q8IU85)", "conditions": "10 µM; read-out: Activity (%), CaMKIδ(h)", "protocol": "as §1"}, "[19]": {"target": "panel of human kinases (kinase named in endpoint) (Homo sapiens, UniProt Q96NX5)", "conditions": "10 µM; read-out: Activity (%), CaMKIγ(h)", "protocol": "as §1"}, "[20]": {"target": "panel of human kinases (kinase named in endpoint) (Homo sapiens, UniProt Q9C098)", "conditions": "10 µM; read-out: Activity (%), DCAMKL3(h)", "protocol": "as §1"}, "[21]": {"target": "panel of human kinases (kinase named in endpoint) (Homo sapiens, UniProt Q9HC98)", "conditions": "10 µM; read-out: Activity (%), NEK6(h)", "protocol": "as §1"}, "[22]": {"target": "panel of human kinases (kinase named in endpoint) (Homo sapiens, UniProt Q9NQU5)", "sequence (Q9NQU5 whole entry)": "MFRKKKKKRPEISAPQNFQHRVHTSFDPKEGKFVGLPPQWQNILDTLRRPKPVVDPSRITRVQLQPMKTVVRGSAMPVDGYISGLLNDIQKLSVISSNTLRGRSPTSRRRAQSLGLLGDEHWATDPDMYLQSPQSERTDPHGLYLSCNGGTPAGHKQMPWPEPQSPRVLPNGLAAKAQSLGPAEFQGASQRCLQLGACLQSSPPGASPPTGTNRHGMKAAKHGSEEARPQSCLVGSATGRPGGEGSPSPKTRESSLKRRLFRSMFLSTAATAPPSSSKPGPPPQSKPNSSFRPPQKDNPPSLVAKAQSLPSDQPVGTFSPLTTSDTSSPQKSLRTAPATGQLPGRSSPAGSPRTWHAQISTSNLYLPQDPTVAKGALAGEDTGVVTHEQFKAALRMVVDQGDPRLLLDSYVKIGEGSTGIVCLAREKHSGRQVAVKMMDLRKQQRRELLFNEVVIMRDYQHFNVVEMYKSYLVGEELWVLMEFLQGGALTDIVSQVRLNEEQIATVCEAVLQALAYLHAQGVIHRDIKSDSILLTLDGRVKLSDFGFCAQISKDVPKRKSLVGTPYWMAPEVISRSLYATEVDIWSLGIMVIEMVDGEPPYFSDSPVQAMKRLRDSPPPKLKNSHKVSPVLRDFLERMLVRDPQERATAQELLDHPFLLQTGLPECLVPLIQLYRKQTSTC", "conditions": "10 µM; read-out: Activity (%), PAK6(h)", "protocol": "as §1"}, "[23]": {"target": "panel of human kinases (kinase named in endpoint) (Homo sapiens, UniProt Q9P1W9)", "conditions": "10 µM; read-out: Activity (%), Pim-2(h)", "protocol": "as §1"}, "[24]": {"target": "panel of human kinases (kinase named in endpoint) (Homo sapiens, UniProt Q9P286)", "conditions": "10 µM; read-out: Activity (%), PAK5(h)", "protocol": "as §1"}, "[25]": {"target": "panel of human kinases (kinase named in endpoint) (Homo sapiens, UniProt Q9UQ07)", "conditions": "10 µM; read-out: Activity (%), MOK(h)", "protocol": "as §1"}, "[26]": {"target": "panel of human kinases (kinase named in endpoint) (Homo sapiens, UniProt Q9UQB9)", "sequence (Q9UQB9 whole entry)": "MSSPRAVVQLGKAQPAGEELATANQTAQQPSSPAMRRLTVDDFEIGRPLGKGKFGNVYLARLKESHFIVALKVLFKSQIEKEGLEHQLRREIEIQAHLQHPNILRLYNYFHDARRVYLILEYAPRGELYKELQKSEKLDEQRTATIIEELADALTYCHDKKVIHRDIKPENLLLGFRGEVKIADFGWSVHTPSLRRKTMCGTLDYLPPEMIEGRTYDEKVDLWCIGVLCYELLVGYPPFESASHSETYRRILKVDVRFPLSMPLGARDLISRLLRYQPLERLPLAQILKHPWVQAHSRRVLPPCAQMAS", "conditions": "10 µM; read-out: Activity (%), Aurora-C(h)", "protocol": "as §1"}}}
{"smiles": "CC(C)C(=O)Nc1nc2cc(-c3ccc4c(c3)c(C(=O)NC(C)c3ccccc3)cn4C)ccn2n1", "note": "(centres unmarked) [RI-962]", "values": [{"measurement": "activity at 10 µM", "setting": "[1]", "value": 94, "unit": "%"}, {"measurement": "activity at 10 µM", "setting": "[2]", "value": 105, "unit": "%"}, {"measurement": "activity at 10 µM", "setting": "[3]", "value": 97, "unit": "%"}, {"measurement": "activity at 10 µM", "setting": "[4]", "value": 107, "unit": "%"}, {"measurement": "activity at 10 µM", "setting": "[5]", "value": 105, "unit": "%"}, {"measurement": "activity at 10 µM", "setting": "[6]", "value": 92, "unit": "%"}, {"measurement": "activity at 10 µM", "setting": "[7]", "value": 103, "unit": "%"}, {"measurement": "activity at 10 µM", "setting": "[8]", "value": 111, "unit": "%"}, {"measurement": "activity at 10 µM", "setting": "[9]", "value": 93, "unit": "%"}, {"measurement": "activity at 10 µM", "setting": "[10]", "value": 97, "unit": "%"}, {"measurement": "activity at 10 µM", "setting": "[11]", "value": 122, "unit": "%"}, {"measurement": "activity at 10 µM", "setting": "[12]", "value": 90, "unit": "%"}, {"measurement": "activity at 10 µM", "setting": "[13]", "value": 104, "unit": "%"}, {"measurement": "activity at 10 µM", "setting": "[14]", "value": 89, "unit": "%"}, {"measurement": "activity at 10 µM", "setting": "[15]", "value": 92, "unit": "%"}, {"measurement": "activity at 10 µM", "setting": "[16]", "value": 95, "unit": "%"}, {"measurement": "activity at 10 µM", "setting": "[17]", "value": 81, "unit": "%"}, {"measurement": "activity at 10 µM", "setting": "[18]", "value": 104, "unit": "%"}, {"measurement": "activity at 10 µM", "setting": "[19]", "value": 113, "unit": "%"}, {"measurement": "activity at 10 µM", "setting": "[20]", "value": 100, "unit": "%"}, {"measurement": "activity at 10 µM", "setting": "[21]", "value": 99, "unit": "%"}, {"measurement": "activity at 10 µM", "setting": "[22]", "value": 87, "unit": "%"}, {"measurement": "activity at 10 µM", "setting": "[23]", "value": 97, "unit": "%"}, {"measurement": "activity at 10 µM", "setting": "[24]", "value": 93, "unit": "%"}, {"measurement": "activity at 10 µM", "setting": "[25]", "value": 88, "unit": "%"}, {"measurement": "activity at 10 µM", "setting": "[26]", "value": 95, "unit": "%"}]}
